Measurements taken from patent publication US11279714B2, “Anti-infective compounds” (priority 2014, dated 2022).

Columns and labels:
Type in all cases: cell-based, Mycobacterium
Details in all cases: REMA, 1 week + 1 day resazurin; relative to H37Rv
[1] = system: MDR-146 (clinical isolate of multidrug-resistance tuberculosis)
[2] = system: MDR-33 (clinical isolate of multidrug-resistance tuberculosis)
[3] = system: MDR-137 (clinical isolate of multidrug-resistance tuberculosis)

| SMILES | Antibacterial activity MDR-146 [1] | Antibacterial activity MDR-33 [2] | Antibacterial activity MDR-137 [3] |
| --- | --- | --- | --- |
| Cc1nc2cc(NC(=O)c3cc4sc(N5CCOCC5)nc4s3)ccc2o1 [Compound 83] | +++ (+++ indicates <2 times of MIC50 on wild type strain (H37Rv)) | +++ (+++ indicates <2 times of MIC50 on wild type strain (H37Rv)) | +++ (+++ indicates <2 times of MIC50 on wild type strain (H37Rv)) |
| COc1ccc(NC(=O)c2cc3sc(N4CCC(C(=O)N(C)C)CC4)nc3s2)cc1 [Compound 127] | +++ (+++ indicates <2 times of MIC50 on wild type strain (H37Rv)) | +++ (+++ indicates <2 times of MIC50 on wild type strain (H37Rv)) | +++ (+++ indicates <2 times of MIC50 on wild type strain (H37Rv)) |
| Cc1nc2cc(NC(=O)c3cc4sc(N5CCC(CO)CC5)nc4s3)ccc2o1 [Compound 144] | +++ (+++ indicates <2 times of MIC50 on wild type strain (H37Rv)) | +++ (+++ indicates <2 times of MIC50 on wild type strain (H37Rv)) | +++ (+++ indicates <2 times of MIC50 on wild type strain (H37Rv)) |
| COCCN(C)c1nc2sc(C(=O)Nc3ccc4oc(C)nc4c3)cc2s1 [Compound 202] | +++ (+++ indicates <2 times of MIC50 on wild type strain (H37Rv)) | +++ (+++ indicates <2 times of MIC50 on wild type strain (H37Rv)) | +++ (+++ indicates <2 times of MIC50 on wild type strain (H37Rv)) |
